The record followed here is patent US20090142364A1, “Method for finding novel peptide immunostimulatory adjuvants, compositions and methods of use” (priority 2007, published 2009).

Entries after “also recorded” stand apart in the source; their conditions may differ. Where a SMILES comes first, the peptide text is derived from it.

For data set [1], the system named is E6/1.2 mAb. Put plainly: Solid-phase ELISA of TentaGel-bound synthesized peptide with E6/1.2 mAb. The data set is classed as binding, mouse. The procedure:
Different biological activities are characteristic of GMDP, including adjuvant activity, induction of non-specific resistance to infections, and the ability to induce Ia-antigen expression on murine macrophages (Khaidukov S. V. 1995). In order to evaluate the biological properties, we produced RN-peptide by solid-phase synthesis by Fmoc strategy. Two types of polymers were used, namely standard Wang's resin and TentaGel (Rapp Polymere, Germany). The synthesis carried out on Wang's resin yielded, after removal of protective groups, the free peptide which was used in biological studies after standard chromatographic purification. When hydrophilic TentaGel was used as solid support, the peptide remained bound to polymer after removal of protective groups enabling evaluation of its binding to E6/1.2 mAb by solid-phase ELISA.
Peptide synthesis. All peptides were synthesized manually by the Fmoc/t-Bu technique. Wang Resin (Bachem, Switzerland) was loaded with Fmoc-Asn(Trt)-OH via diisopropylcarbodiimide-4-dimethylaminopyridine (DIC-DMAP) procedure (Heinzelmann et al. 2000). […] Coupling efficiency during polypeptide chain assembly was routinely monitored by Kaiser ninhydrine test and in case of incomplete reactions extra couplings were carried out. […]
For orientation: In an ELISA, binding on a coated surface is turned into a signal by an enzyme label.

A short description of data set [2]: Immunogenicity of the peptide: anti-peptide antibody titer by solid-phase ELISA. The data set is classed as in vivo, Balb/c mice. The conditions noted are these: mice immunized once or twice in PBS, 1-100 μg i.p. The procedure:
Immunogenicity of the peptide. Groups of Balb/c mice (5 mice) were immunized with 1-100 μg RN-peptide in PBS i.p. twice with 10-day interval. The anti-peptide antibody titer was estimated in pooled sera by solid-phase ELISA using MaxiSorb plates (Nunc, Denmark) coated with RN-peptide (10 μg/ml). The anti-peptide antibody titer was compared with the titer of normal mouse serum. E6/1.2 mAb was used as a positive control.

The conditions of data set [3]: rat, in vivo, ip. How it is done: We studied the Ia-antigen-inducing activity of RN-peptide by stimulation in vitro of murine peritoneal macrophages. Flow cytometry was used to assess Ia-antigen expression. […] The pyrogenicity of the peptide was studied in Wistar rats. […] The dynamics of alteration of rectal temperature were monitored during 2.5 h.
The pyrogenic effect SPF female Wistar rats were injected i.p. with a peptide (1.01 mg/kg; 5.74×10^−7 mole/kg) in PBS or with equal dose of GMDP (0.4 mg/kg; 5.74×10^−7 mole/kg). Rectal temperature was recorded every 5 minutes for 160 minutes using PowerLabe/4sp system with an electronic thermometer (MLT1403 Rectal Probe for Rats, AD Instruments USA). All data were quantified (mean±SEM) and compared by the variance analysis.

For `CC[C@H](C)[C@H](NC(=O)[C@H](CCCCN)NC(=O)[C@H](C)NC(=O)[C@H](Cc1c[nH]cn1)NC(=O)[C@H](Cc1ccc(O)cc1)NC(=O)[C@H](CCCNC(=N)N)NC(=O)[C@@H]1CCCN1C(=O)[C@@H]1CCCN1C(=O)[C@@H](NC(=O)[C@@H](N)CCCNC(=N)N)C(C)C)C(=O)N[C@@H](CO)C(=O)N1CCC[C@H]1C(=O)N[C@@H](CCSC)C(=O)N[C@H](C(=O)N[C@@H](CC(N)=O)C(=O)O)C(C)C` [RN-peptide, RVPPRYHAKISPMVN] (H-RVPPRYHAKISPMVN-OH), the “binding to GMDP-specific mAb” value in data set [1] is reported as “retained the ability”. For the same compound, the “anti-RN-peptide antibodies (humoral response to the peptide)” value in data set [2] is “did not reveal any anti-RN-peptide antibodies; also recorded: did not exceed the titer of native mice”. Further, the “increase in body temperature” value in data set [3] is given as “did not produce this effect”.
